Read-outs that look alike come from different tables or passages of the source.

The results in this text go back to patent US9561212B2, “Hepatitis C virus inhibitors” (BRISTOL-MYERS SQUIBB COMPANY, priority 2012, dated 2017).

The experiment concerns HCV 1b genotype. Nature of the experiment: microbe, parasite or virus in culture. It counts as cell-based, Hepatitis C virus. Conditions: HCV 1b replicon. Here is the method: An HCV Replicon assay was utilized in the present disclosure, and was prepared, conducted and validated as described in commonly owned PCT/US2006/022197 and in O'Boyle et. al. Antimicrob Agents Chemother. 2005 April; 49(4):1346-53. Assay methods incorporating luciferase reporters have also been used as described (Apath.com).
HCV-neo replicon cells and replicon cells containing resistance substitutions in the NS5A region were used to test the currently described family of compounds.
In general terms: In antiviral work, replicon cells carry a viral genome segment that copies itself.

[1] abbreviates: read-out: Range: EC50 ranges against HCV 1b.
Setting [2] is: Hepatitis C virus, read-out: 1b (μM): EC50 (Effective 50% inhibitory concentration) against the HCV 1b genotype.
Setting [3] is: Hepatitis C virus, read-out: Range: EC50 ranges against HCV 1b.

Regarding `COC(=O)NC(C(=O)N1[C@@H](C)CC[C@H]1c1ncc(-c2ccc(-c3ccc(-c4cnc([C@@H]5CC[C@H](C)N5C(=O)C(NC(=O)OC)C5CCOC6(CCC6)C5)[nH]4)cc3)cc2)[nH]1)C1CCOC2(CCC2)C1` (single isomer, unassigned) [Example 2.1], the EC50 under setting [1] lay in the range of 0.9 to 700 nM.

On to `COC(=O)NC(C(=O)N1[C@@H](C)CC[C@H]1c1ncc(-c2ccc(-c3ccc(-c4cnc([C@@H]5CC[C@H](C)N5C(=O)C(NC(=O)OC)C5CCOC6(CCC6)C5)[nH]4)cc3)cc2)[nH]1)C1CCOC2(CCC2)C1` (single isomer, unassigned) [Example 2.2], for which the EC50 under setting [1] is 0.9 to 700 nM.

For `COC(=O)NC(C(=O)N1[C@@H](C)CC[C@H]1c1ncc(-c2ccc(-c3ccc(-c4cnc([C@@H]5CC[C@H](C)N5C(=O)C(NC(=O)OC)C5CCOC6(CCC6)C5)[nH]4)cc3)cc2)[nH]1)C1CCOC2(CCC2)C1` (single isomer, unassigned) [Example 2.3], under setting [2], the EC50 was 0.00488 nM.

Turning to `COC(=O)NC(C(=O)N1[C@@H](C)CC[C@H]1c1ncc(-c2ccc(-c3ccc(-c4cnc([C@@H]5CC[C@H](C)N5C(=O)C(NC(=O)OC)C5CCOC6(CCC6)C5)[nH]4)cc3)cc2)[nH]1)C1CCOC2(CCC2)C1` (single isomer, unassigned) [Example 2.4], the EC50 under setting [1] was 0.00501 to 0.1 nM.

For the molecule `COC(=O)NC(C(=O)N1[C@@H](C)CC[C@H]1c1ncc(-c2ccc(-c3ccc(-c4cnc([C@@H]5CC[C@H](C)N5C(=O)C(NC(=O)OC)C5CCOC6(CCCC6)C5)[nH]4)cc3)cc2)[nH]1)C1CCOC2(CCCC2)C1` (single isomer, unassigned) [Example 3.1], the EC50 under setting [1] lay within 0.9 to 700 nM.

As to `COC(=O)NC(C(=O)N1[C@@H](C)CC[C@H]1c1ncc(-c2ccc(-c3ccc(-c4cnc([C@@H]5CC[C@H](C)N5C(=O)C(NC(=O)OC)C5CCOC6(CCCC6)C5)[nH]4)cc3)cc2)[nH]1)C1CCOC2(CCCC2)C1` (single isomer, unassigned) [Example 3.2], under setting [1], the EC50 lay within 0.9 to 700 nM.

Consider `COC(=O)NC(C(=O)N1[C@@H](C)CC[C@H]1c1ncc(-c2ccc(-c3ccc(-c4cnc([C@@H]5CC[C@H](C)N5C(=O)C(NC(=O)OC)C5CCOC6(CCCC6)C5)[nH]4)cc3)cc2)[nH]1)C1CCOC2(CCCC2)C1` (single isomer, unassigned) [Example 3.3], for which the EC50 is 0.00501 to 0.1 nM under setting [1] and 0.00504 nM under setting [2].

As for `COC(=O)NC(C(=O)N1[C@@H](C)CC[C@H]1c1ncc(-c2ccc(-c3ccc(-c4cnc([C@@H]5CC[C@H](C)N5C(=O)C(NC(=O)OC)C5CCOC6(CCCC6)C5)[nH]4)cc3)cc2)[nH]1)C1CCOC2(CCCC2)C1` (single isomer, unassigned) [Example 3.4], the EC50 under setting [1] lay in the range of 0.00501 to 0.1 nM.

`COC(=O)N[C@H](C(=O)N1C(CO)CCC1c1ncc(-c2ccc(-c3ccc(-c4cnc(C5CCC(CO)N5C(=O)[C@@H](NC(=O)OC)C5C[C@@H](C)O[C@H](C)C5)[nH]4)cc3)cc2)[nH]1)C1C[C@@H](C)O[C@H](C)C1` (single isomer, unassigned) [Example 11.1]: under setting [3], the EC50 was in the range of 0.9 to 700 nM.

Turning to `COC(=O)N[C@H](C(=O)N1[C@@H](CO)CC[C@H]1c1ncc(-c2ccc(-c3ccc(-c4cnc([C@@H]5CC[C@H](CO)N5C(=O)[C@@H](NC(=O)OC)C5C[C@@H](C)O[C@H](C)C5)[nH]4)cc3)cc2)[nH]1)C1C[C@@H](C)O[C@H](C)C1` (single isomer, unassigned) [Example 11], the EC50 under setting [3] is 0.9 to 700 nM.

Regarding `COC(=O)NC(C(=O)N1[C@@H]2C[C@@H]2C[C@H]1c1nc(-c2ccc(-c3ccc(-c4c[nH]c([C@@H]5C[C@H]6C[C@H]6N5C(=O)C(NC(=O)OC)C5[C@H]6COC[C@@H]56)n4)cc3)cc2)c[nH]1)C1[C@H]2COC[C@@H]12` (single isomer, unassigned; diastereomer 1) [QC4.1], under setting [1], the EC50 lay in the range of 0.00501 to 0.1 nM.

As to `COC(=O)NC(C(=O)N1[C@@H]2C[C@@H]2C[C@H]1c1nc(-c2ccc(-c3ccc(-c4c[nH]c([C@@H]5C[C@H]6C[C@H]6N5C(=O)C(NC(=O)OC)C5C[C@@H]6[C@H](C5)C6(F)F)n4)cc3)cc2)c[nH]1)C1C[C@@H]2[C@H](C1)C2(F)F` (single isomer, unassigned; diastereomer 2) [QC2.2], the EC50 under setting [1] lay in the range of 0.00501 to 0.1 nM.

On to `COC(=O)NC(C(=O)N1[C@@H]2C[C@@H]2C[C@H]1c1nc(-c2ccc(-c3ccc(-c4c[nH]c([C@@H]5C[C@H]6C[C@H]6N5C(=O)C(NC(=O)OC)C5C[C@@H]6C[C@@H]6C5)n4)cc3)cc2)c[nH]1)C1C[C@@H]2C[C@@H]2C1` (single isomer, unassigned; diastereomer 2) [QC3.2], for which the EC50 under setting [1] is 0.00501 to 0.1 nM.

With `COC(=O)NC(C(=O)N1[C@@H]2C[C@@H]2C[C@H]1c1nc(-c2ccc(-c3ccc(-c4c[nH]c([C@@H]5C[C@H]6C[C@H]6N5C(=O)C(NC(=O)OC)C5[C@H]6COC[C@@H]56)n4)cc3)cc2)c[nH]1)C1[C@H]2COC[C@@H]12` (single isomer, unassigned; diastereomer 2) [QC4.2], under setting [1], the EC50 lay in the range of 0.1 to 0.9 nM.

`COC(=O)N[C@@H](C(=O)N1C(c2nc(-c3ccc(-c4ccc(-c5c[nH]c(C6C[C@H]7CC7N6C(=O)[C@H](NC(=O)OC)C6C[C@@H]7[C@H](C6)C7(F)F)n5)cc4)cc3)c[nH]2)C[C@H]2CC21)C1C[C@@H]2[C@H](C1)C2(F)F` (single isomer, unassigned; diastereomer 3) [QC2.3]: the EC50 (read-out: 1b (μM): EC50 (Effective 50% inhibitory concentration) against the HCV 1b genotype) came out at 1.08 nM and the EC50 under setting [1] is 0.9 to 700 nM.

As for `COC(=O)N[C@@H](C(=O)N1[C@@H]2C[C@@H]2C[C@H]1c1nc(-c2ccc(-c3ccc(-c4c[nH]c([C@@H]5C[C@H]6C[C@H]6N5C(=O)[C@H](NC(=O)OC)[C@H]5C[C@H]6C[C@H]6C5)n4)cc3)cc2)c[nH]1)[C@H]1C[C@H]2C[C@H]2C1` (single isomer, unassigned; diastereomer 3) [QC3.3], under setting [1], the EC50 was 0.1 to 0.9 nM.

As for `COC(=O)NC(C(=O)N1[C@@H]2C[C@@H]2C[C@H]1c1nc(-c2ccc(-c3ccc(-c4c[nH]c([C@@H]5C[C@H]6C[C@H]6N5C(=O)C(NC(=O)OC)[C@H]5C[C@@H]6C[C@@H]6C5)n4)cc3)cc2)c[nH]1)[C@H]1C[C@@H]2C[C@@H]2C1` (single isomer, unassigned; diastereomer 3) [QC5.3], the EC50 under setting [2] worked out at 0.00555 nM and the EC50 under setting [3] fell in the range of 0.00501 to 0.1 nM.

In the case of `COC(=O)NC(C(=O)N1C(c2nc(-c3ccc(-c4ccc(-c5c[nH]c([C@@H]6CC[C@H](C)N6C(=O)C(NC(=O)OC)C6CCC7(CC7)OC6)n5)cc4)cc3)c[nH]2)CC[C@@H]1C)C1CCC2(CC2)OC1` (some centres unmarked) [Example 1.1], the EC50 under setting [3] was in the range of 0.00501 to 0.1 nM.

As to `COC(=O)NC(C(=O)N1C(c2nc(-c3ccc(-c4ccc(-c5c[nH]c([C@@H]6CC[C@H](C)N6C(=O)C(NC(=O)OC)C6CCC7(CC7)OC6)n5)cc4)cc3)c[nH]2)CC[C@@H]1C)C1CCC2(CC2)OC1` (some centres unmarked) [Example 1.2], under setting [1], the EC50 is 0.00501 to 0.1 nM.

Turning to `C=C1CC(C(NC(=O)OC)C(=O)N2[C@@H](C)CC[C@H]2c2ncc(-c3ccc(-c4ccc(-c5cnc([C@@H]6CC[C@H](C)N6C(=O)C(NC(=O)OC)C6CC(=C)C6)[nH]5)cc4)cc3)[nH]2)C1` (some centres unmarked) [Example 4.2], the EC50 under setting [2] is 0.243 nM and the EC50 under setting [3] is 0.1 to 0.9 nM.

Take `COC(=O)NC(C(=O)N1[C@@H](C)CC[C@H]1c1ncc(-c2ccc(-c3ccc(-c4cnc([C@@H]5CC[C@H](C)N5C(=O)C(NC(=O)OC)C5CC6(CC6)C5)[nH]4)cc3)cc2)[nH]1)C1CC2(CC2)C1` (some centres unmarked) [Example 5.2]: the EC50 is, setting by setting: under setting [2], 9.07 nM; under setting [3], 0.9 to 700 nM.

For the molecule `COC(=O)N[C@H](C(=O)N1[C@@H](C)CC[C@H]1c1ncc(-c2ccc(-c3ccc(-c4cnc([C@@H]5CC[C@H](C)N5C(=O)[C@@H](NC(=O)OC)[C@@H]5CCO[C@@H](C6CC6)C5)[nH]4)cc3)cc2)[nH]1)[C@@H]1CCO[C@@H](C2CC2)C1` [Example 6], the EC50 under setting [3] lay within 0.00501 to 0.1 nM.

With `COC(=O)N[C@H](C(=O)N1[C@@H](C)CC[C@H]1c1ncc(-c2ccc(-c3ccc(-c4cnc([C@@H]5CC[C@H](C)N5C(=O)[C@@H](NC(=O)OC)[C@@H]5CCO[C@H](C6CC6)C5)[nH]4)cc3)cc2)[nH]1)[C@@H]1CCO[C@H](C2CC2)C1` [Example 7], the EC50 under setting [3] was in the range of 0.00501 to 0.1 nM.

Consider `COC(=O)N[C@H](C(=O)N1[C@@H](CF)CC[C@H]1c1ncc(-c2ccc(-c3ccc(-c4cnc([C@@H]5CC[C@H](CF)N5C(=O)[C@@H](NC(=O)OC)[C@H]5CCOC6(CC6)C5)[nH]4)cc3)cc2)[nH]1)[C@H]1CCOC2(CC2)C1` [Example 8], for which, under setting [3], the EC50 was in the range of 0.00501 to 0.1 nM.

As to `COC(=O)N[C@H](C(=O)N1[C@@H](C)CC[C@H]1c1ncc(-c2ccc(-c3ccc(-c4cnc([C@@H]5CC[C@H](C)N5C(=O)[C@@H](NC(=O)OC)[C@H]5C[C@H](C)O[C@@H](C6CC6)C5)[nH]4)cc3)cc2)[nH]1)[C@H]1C[C@H](C)O[C@@H](C2CC2)C1` [Example 9.3, dimethyl ((S,R,S,1S,1′S)-((2S,2′S,5S,5′S)-5,5′-(5,5′-([1,1′-biphenyl]-4,4′-diyl)bis(1H-imidazole-5,2-diyl))bis(2-methylpyrrolidine-5,1-diyl))bis(1-((2R,4S,6S)-2-cyclopropyl-6-methyltetrahydro-2H-pyran-4-yl)-2-oxoethane-2,1-diyl))dicarbamate], the EC50 under setting [3] lay in the range of 0.00501 to 0.1 nM.

Consider `COC(=O)N[C@H](C(=O)N1[C@@H](C)CC[C@H]1c1ncc(-c2ccc(-c3ccc(-c4cnc([C@@H]5CC[C@H](C)N5C(=O)[C@@H](NC(=O)OC)[C@H]5C[C@@H](C)O[C@H](C6CC6)C5)[nH]4)cc3)cc2)[nH]1)[C@H]1C[C@@H](C)O[C@H](C2CC2)C1` [Example 9.4, dimethyl ((R,S,S,1S,1′S)-((2S,2′S,5S,5′S)-5,5′-(5,5′-([1,1′-biphenyl]-4,4′-diyl)bis(1H-imidazole-5,2-diyl))bis(2-methylpyrrolidine-5,1-diyl))bis(1-((2S,4S,6R)-2-cyclopropyl-6-methyltetrahydro-2H-pyran-4-yl)-2-oxoethane-2,1-diyl))dicarbamate], for which the EC50 by setting is: under setting [2], 0.0093 nM; under setting [3], 0.00501 to 0.1 nM.
